According to US11564913B2, “Compositions and methods for treating cancer” (Children's Hospital Medical Center, priority 2019, dated 2023):

Key:
[1] = tested on: p190- and p210-BCR-ABL1 expressing Ba/F3 cells; test: Cell survival, trypan blue exclusion; assay type: cell-based, murine; details: Mus musculus, BaF3; read-out: half maximal effective concentration (EC50), survival
Description: (B) IODVA1-dependent survival curves of empty vector (red circles) or p190-BCR-ABL1 (black circles) expressing Ba/F3 cells and of Nalm-1 cells. […] (C) p190-BCR-ABL1 (grey line) or Mieg3 (black line) expressing Ba/F3 cells were allowed to grow for 1 day, treated with IODVA1 (IO1, 1 μM) for 1 day, and washed (black arrow). Cells were counted for 7 days using trypan blue exclusion. (D) Ba/F3 cells stably expressing p190-BCR-ABL1 were subjected to colony formation assay in soft agar (0.25% Noble Agar in RPMI/FBS/IL-3) in the presence of DMSO or IODVA1 (1 or 10 μM). Colonies were allowed to form for 10 days then stained with iodonitrotetrazolium (1 mg/mL). […] (E) Leukemic burden (%) of treated mice before treatment (left upper panel) and at the indicated treatment time was analyzed by flow cytometry of bone marrow aspirates as population containing B220^+/CD43^+ pro-B cells. […]
IODVA1 specifically targets BCR-ABL B-ALL cells in vitro. […] We then assessed survival of p190-BCR-ABL-transformed CD34^+ cells in the presence of IODVA1 by trypan blue exclusion. […]
MDA-MB-231 cells were maintained in IMEM (Invitrogen) supplemented with 10% FBS, 1% penicillin/streptomycin, and 1% amphotericin B. B a/F3 cells were cultured in RPMI (GIBCO) supplemented with 10% FBS and IL-3 (10 ng/ml). […] Cell viability was assessed by trypan blue exclusion assay as previously described. […]

[2] = tested on: MDA-MB-231 cells expressing scrambled shRNA; test: Viability and proliferation, trypan blue exclusion; assay type: cell-based, human; details: 0.1-1 μM
[3] = tested on: Vav3−/− leukemic cells expressing full-length Vav3; test: Vav3 rescue, colony formation assay; assay type: cell-based, murine; details: 10 μM; 200 with vehicle
Description: (§1) FIG. 15: Expression of transgenic Vav3 re-sensitizes Vav3-deficient cells to IODVA1. (A) Vav3 domain structure, calponin-homology (CH), acidic region (Ac), Dbl-homology (DH), pleckstrin-homology (PH), zinc finger (ZF), Src-homology 2 and 3 (SH2/SH3). (B) Representative histogram data of the cell cycle analysis of wild-type (Vav3^+/+) and Vav3-deficient (Vav3^−/−) p190-BCR-ABL1 leukemic bone marrow cells expressing empty vector, full-length Vav3 or ΔCH mutant and treated with vehicle control (black) or IODVA1 at 5 (red) or 10 μM (dark grey) for 18 h. (C) Quantification of the average number of colonies made by bone marrow wild-type and Vav3^−/− p190-BCR-ABL1 leukemic bone marrow cells expressing empty vector, full-length Vav3 or ΔCH mutant and treated with vehicle control (black) or IODVA1 at 1 (light salmon), 5 (red) and 10 μM (dark grey). *** p≤0.001. […]
(§2) For Vav3 rescue experiments, low density bone marrow cells from wild-type ([…]) or Vav3^−/− mice were transduced with bicistronic retroviral vector encoding p190 BCR-ABL1-IRES-YFP (yellow fluorescent protein) and YFP^+ cells were sorted 48 h post-transduction. […] Cell cycle was analyzed at 18 h post BrdU incorporation. […]

[4] = tested on: Vav3−/− leukemic cells expressing ΔCH Vav3; test: Vav3 rescue, colony formation assay; assay type: cell-based, murine; details: 1, 5, and 10 μM
Description: as §1, §2

OC1(c2ccccn2)N=C(Nc2nc3ccccc3[nH]2)N=C1c1ccccn1 (stereo not shown) [IODVA1, (Z)-2-((1H-benzo[d]imidazol-2-yl)imino)-4,5-di(pyridin-2-yl)-2,5-dihydro-1H-imidazol-5-ol]
EC50 [1]: 380 nM | viability and proliferation [2]: reduces, in a dose-dependent manner | number of colonies [3]: 75 colonies | response in colony formation [4]: respond less
